Experimental data taken from patent publication US9394539B1, “Survival motor neuron gene (SMN2) mRNA constructs for post-transcription regulation” (PTC Therapeutics, Inc., priority 2007, dated 2016).

Tests used:
[1] = test system: 5′-UTR and 3′-UTR of the target SMN2 mRNA; test: Luciferase reporter gene screening assay in stable 293H cells (fLuc flanked by SMN2 5′-UTR and 3′-UTR); format: cell-based, human; conditions: 7.5 μM test concentration, 24 hours, vs negative control (0.5% DMSO)
Procedure: Stable 293H cell lines containing the firefly luciferase (fLuc) gene flanked by one of SMN1 or SMN2 5′-UTR and 3′-UTR were cultured in DMEM medium supplemented with 10% FBS and 200 ug/mL hygromycin in Fisher T175 flasks. The cells were passaged every 4 days at 1:10 dilution. Cultures are kept in a 37° C. and 5% CO2 incubator. The cells were scaled-up over a three day period before performing the assay. Two confluent T175 flasks were split into twenty T175 flasks (1:10 dilution). Cells were harvested from each confluent flask by removing all of the media and adding 4 mL of warmed trypsin to dislodge the cells. After the cells were dislodged, 16 mL of selective media was added for a final volume of 20 mL. The cells were expanded by adding 2 mL of the harvested cells into ten new T175 flasks plus 25 ml, of selective media. The twenty new flasks are placed into the 37° C., 5% CO2 incubator. On the day the assay was performed, the media was removed from the flasks and 3 mL of warmed trypsin was added to dislodge the cells. After the cells were dislodged, 10 mL of nonselective media was to the flask. This was repeated for all twenty flasks and combined into one flask. 100 μL of the above cell culture plus 100 μL of Trypan Blue stain was counted on a hemocytometer. Cells were plated in the presence of 2 μL of a compound to be tested (at final concentration of 7.5 μM with 0.5% DMSO).
The firefly luciferase substrate used was Luc Lite Plus Packard #6016969. Luciferase activity was immediately assayed using a ViewLux Imaging system (Perkin Elmer).
The screening assay was performed by preparing a plates containing test compounds and controls, including wells that contained only vehicle or a high inhibitor concentration and wells that provided an 8-point dose response curve of puromycin, a non-specific standard control inhibitor. The cells were grown overnight in the presence of compounds or controls at 37° C. in 5% CO2. […] After 24 hours, the amount of luminescence was determined using a ViewLux Imaging system (Perkin Elmer). […]

[2] = CellTiter-Glo cytotoxicity assay, Huh7 cells; format: cell-based; conditions: human, Huh7 hepatoblastoma cells, intermediate level of sensitivity
[3] = CellTiter-Glo cytotoxicity assay, MC-IXC cells; format: cell-based; conditions: human, MC-IXC neuroblastoma cells, CellTiter-Glo (ATP)
Procedure: (§1) To evaluate cytotoxicity of the compounds in the neuroblastoma MC-IXC cell line, the CellTiter-Glo assay (Promega) was utilized. CellTiter-Glo determines the number of viable cells in culture based on quantification of the ATP present, which signals the presence of metabolically active cells. A reduction in cellular ATP is indicative of a cytotoxic or cytostatic effect. The compounds are tested in a 7-point dose response from 30 μM to 0.38 μM. Doxorubicin, a known cytotoxic compound, are used to address the sensitivity of the tested cell line. For relatively sensitive cell lines, such as U937 (a human monocyte cell line), the CC50 of doxorubicin ranges from 4 to 10 nM.

[4] = CellTiter-Glo cytotoxicity assay, U937 cells; format: cell-based; conditions: human, U937 monocyte cells, relatively sensitive cell line
Procedure: as §1

SMILES	Ratio (fold increase in target mRNA (SMN2) compared to negative control) [1]	CC50 [2] [nM]	CC50 [3] [nM]	CC50 [4] [nM]
Cc1ccc2nc(-c3ccc(/N=C/c4ccc(Br)s4)cc3)sc2c1 [Cpd 1, (E)-N-((5-bromothiophen-2-yl)methylene)-4-(6-methylbenzo[d]thiazol-2-yl)aniline]	* (one star (*) represents active compounds with a fold increase ratio in a range greater than 1.3 up to 1.6)	–	–	–
c1ccc(-n2ncc3c(NC4CCCCC4)ncnc32)cc1 [Cpd 4, N-cyclohexyl-1-phenyl-1H-pyrazolo[3,4-d]pyrimidin-4-amine]	** (two stars (**) represent active compounds with a fold increase ratio in a range greater than 1.6 up to 1.8)	–	–	–
COc1cccc2c1C(=O)c1c(O)c3c(c(O)c1C2=O)C[C@@](O)(C(=O)CO)C[C@@H]3O[C@H]1C[C@H](N)[C@H](O)[C@H](C)O1 [doxorubicin]	–	70 to 300	12	4 to 10
CC(C)(C)C(C)(O)C#Cc1ccccc1 (stereo not drawn) [Cpd 2, 3,4,4-trimethyl-1-phenylpent-1-yn-3-ol]	** (two stars (**) represent active compounds with a fold increase ratio in a range greater than 1.6 up to 1.8)	–	–	–
